Where two headings read alike, the source gives them in different places.
Legend:
[1] = tested on: passive cutaneous anaphylaxis reaction (PCA); assay: passive cutaneous anaphylaxis reaction (PCA) in the rat; format: in vivo; settings: for PCA Response, percent inhibition at the dose specified / ED50: rat; for ED50: read-out: PCA Response, ED 50; for antiallergic activity: rat PCA, result in words
Method: Twelve days after injection, the serum is collected and the antibody titer is determined. The sera which contain sufficient antibody to cause a 10 mm. spot in the dorsal skin of the rat in the PCA test after a 10-fold dilution are pooled. […] The selected reaginic anti-sera are stored frozen until use. For carrying out the test, groups of 5 to 10 male Sprague-Dawley (Carworth Farms) rats, each rat weighing 100-150 g., are used. Forty-eight hours prior to the test, the animals are passively sensitized by intradermal injection of 0.1 ml. of the above diluted antiserum at various locations on the shaved skin of the back. A dilution of antiserum is used so that a spot following challenge of 20-25 mm. in diameter is obtained. Challenge consists of an intravenous injection of 25 mg./kg. of body weight of egg albumin and a like amount of Evan's blue dye in saline. […] A latent period of 48 hrs. is allowed before the animals are treated with the test drug administered by either intraperitoneal or intravenous injection or orally by gavage. Challenge as described above is given 15 min. subsequent to treatment with the test drug. The response to the antigen challenge in the sensitized localities on the skin is an increased capillary permeability and leakage of the blue dye into the area surrounding the sensitized site. The PCA response is scored by measuring the mean spot diameter on the excised and reversed skin 20-30 min. after challenge. In each experiment a group of control animals receiving no drug is employed. The percent inhibition of the PCA is calculated by determining the mean diameters of the spots in the control and treated animals and computing the difference between the squares of the mean diameters of the control animals and the treated animals and expressing this difference as a percentage of the square of the mean diameter of the control animals. Results are expressed as percent inhibition. […] In other modifications, various time intervals are allowed between drug treatment and challenge to ascertain the duration of drug effect.

guinea pig trachea = assay: relaxation of the spontaneous tonus of the isolated guinea pig trachea (tracheal spiral) in vitro; settings: for relaxation of the spontaneous tonus of the guinea pig trachea in vitro: guinea pig trachea / tracheal spiral, result in words
Method: The new compounds of Formulas III and IV are also considered part of the present invention since they are useful as intermediates for the production of the substances of Formula I. Some of the substances of Formulas III and IV also have biological utility in addition to their utility as intermediates. […] It is 13.2 times as potent as theophylline in relaxing the spontaneous tonus of the isolated guinea pig tracheal spiral. […] In both instances, the drug was administered orally.

in vivo = settings: po, rat, treated orally, read-out: approximate LD50

Row | SMILES | ED50 ([1]; po, p.o.) [mg/kg] | relaxation of the spontaneous tonus of the guinea pig trachea in vitro (guinea pig trachea) | further results
1 | O=c1c(-c2nnn[nH]2)cnc2sccn12 [Example 33, 6-(1H-Tetrazol-5-yl)-5H-thiazolo[3,2-a]-pyrimidin-5-one] |  |  | PCA Response, percent inhibition at the dose specified ([1]; 10 mg/kg, p.o.): 57%
2 | O=c1c(-c2nnn[nH]2)cnc2sc3ccccc3n12 [Example 24, 3-(1H-Tetrazol-5-yl)-4H-pyrimido[2,1-b]-benzothiazol-4-one] | 0.064 | cause relaxation | ED50 ([1]; iv, i.v.): 0.0049 mg/kg; LD50 (in vivo): 2000 to 5000 mg/kg
3 | N#CC(=CNc1nc2ccccc2s1)c1nnn[nH]1 [Example 14, N-[2-Cyano-2-(1H-tetrazol-5-yl)ethenyl]-benzothiazol-2-amine] | 32 |  | antiallergic activity [1]: antiallergic activity similar to those substances of Formula I
4 | Cc1cc2sc3ncc(-c4nnn[nH]4)c(=O)n3c2cc1C [Example 32, 7,8-Dimethyl-3-(1H-tetrazol-5-yl)-4H-pyrimido[2,1-b]benzothiazol-4-one] |  | cause relaxation | PCA Response, percent inhibition at the dose specified ([1]; 25 mg/kg, p.o.): 34.9%
5 | Cc1csc(NC=C(C#N)c2nnn[nH]2)n1 [Example 17, 3-[(4-Methylthiazol-2-yl)amino]-2-(1H-tetrazol-5-yl)-2-propenenitrile] |  |  | antiallergic activity [1]: antiallergic activity similar to those substances of Formula I; PCA Response, percent inhibition at the dose specified ([1]; 25 mg/kg, p.o.): 36.7%
6 | Cc1csc2ncc(-c3nnn[nH]3)c(=O)n12 [Example 28, 3-Methyl-6-(1H-tetrazol-5-yl)-5H thiazolo[3,2-a]pyrimidine-5-one] |  | cause relaxation | PCA Response, percent inhibition at the dose specified ([1]; 25 mg/kg, p.o.): 39%
7 | Cc1cc(C)c2sc3ncc(-c4nnn[nH]4)c(=O)n3c2c1 [Example 25, 7,9-Dimethyl-3-(1H-tetrazol-5-yl)-4H-pyrimido[2,1-b]benzothiazol-4-one] |  | cause relaxation | 
8 | N=c1c(-c2nnn[nH]2)cnc2[nH]cnn12 [Example 15, 3,7-Dihydro-6-(1H-tetrazol-5-yl)-s-triazolo-[1,5-a]pyrimidin-7-imine] |  | inactive | PCA Response, percent inhibition at the dose specified ([1]; 10 mg/kg, p.o.): 36.1%
9 | COc1ccc2c(c1)sc1ncc(-c3nnn[nH]3)c(=O)n12 [Example 31, 8-Methoxy-3-(1H-tetrazol-5-yl)-4H-pyrimido-[2,1-b]benzothiazol-4-one] | 1.88 | cause relaxation | 
10 | Cl.N=c1c(-c2nnn[nH]2)cnc2sc3ccccc3n12 [Example 23, 3-(1H-Tetrazol-5-yl)-4H-pyrimido[2,1-b]-benzothiazol-4-imine Hydrochloride] | 2.9 | cause relaxation | 
11 | Cc1csc(NC=C(C#N)C#N)n1 [Example 5, 2-[[(4-methylthiazol-2-yl)amino]methylene]propanedinitrile] |  | substantial tracheal relaxant action | potency relative to theophylline in relaxing the spontaneous tonus of the isolated guinea pig tracheal spiral (guinea pig trachea; isolated guinea pig tracheal spiral): 13.2 times as potent as theophylline
12 | N=c1c(-c2nnn[nH]2)cnc2sccn12 [Example 22, 6-(1H-Tetrazol-5-yl)-5H-thiazole[3,2-a]-pyrimidine-5-imine] |  |  | PCA Response, percent inhibition at the dose specified ([1]; 10 mg/kg, p.o.): 22.4%
